From patent US9572831B2, “Composition and method for sulfated non-anticoagulant low molecular weight heparins in cancer and tumor metastasis” (priority 2013, dated 2017)

Columns and labels:
[1] = test system: MCF7 DOX resistant cancer cells; test: Orthotopic implant of MCF7 DOX resistant cells in nude mice; type: in vivo; conditions: 10 mg/Kg, SC daily for 15 days, vs control
Protocol: Immune-deficient female NCr nude homozygous mice aged 5-6 weeks weighing 18-20 g were purchased from Harlan Laboratories (Indianapolis, Ind.). All animal studies were conducted in accordance with the institutional guidelines for humane animal treatment. Mice were maintained under specific pathogen-free conditions and housed under controlled conditions of temperature (20-24° C.), humidity (60-70%), and 12 h light/dark cycle with ad libitum access to water and food. Mice were allowed to acclimatize for 5 days prior to the start of study.
Orthotopic implant of 0.5 million of MCF7 DOX resistant cancer cells in nude mice result in progressive rapid tumor growth approaching 150 mm3 after 5 days of implant.

MPanc96-luc cells = test: CAM cancer implant model, MPanc96; type: in vivo, chick embryo; conditions: 1.0 ug/CAM
Protocol: The CAM cancer implant model was used in conjunction with the present invention to study the effect of heparin derivatives (S-NACH versus tinzaparin) along with gemcitabine at 1.0 μg/CAM on tumor angiogenesis and tumor growth. MPanc96-luc cells in exponential growth phase were harvested as described above. One×10^6 cells in 30 μl of medium were mixed with an equal volume of Matrigel and implanted in the chick Chorioallantoic membrane (CAM) model of 7-day old chick eggs. The effect of these treatments was determined after 8 days of implantation. Results are presented as a mean tumor weight (g) per treatment group and tumor hemoglobin (mg/dl)±SEM, n=10 per group. For the Matrigel portions of the models, tumor angiogenesis is evaluated with tumor weight analysis and Drabkin's Assay for hemoglobin concentration (angiogenesis index). PBS was used as a negative control while breast cancer cells were used as a positive control and to initiate tumorigenesis. The tumor cells were MCF-7/DXR (human breast adenocarcinoma), and 1-2 million cells per CAM were used. […] By re-weighing the tubes with the tumor inside, the weight of the tumor itself could be recorded. […] Specimens were centrifuged, and the hemoglobin content was measured using Drabkin's reagent (Sigma, St Louis, Mo.), run in duplicate using the supernatant. […]

[2] = Bleeding time (tail transection); type: in vivo, mice; conditions: dose not stated; vs control
Protocol: Bleeding time in mice was tested during the period of receiving test compounds. Mice were anesthetized with isoflurane inhalation. By using a scalpel, 0.5 cm of the distal end of the tail was transected, and the remaining length of tail was immersed immediately into a 37° C. solution of saline. Bleeding time was measured from the time of tail transection until visible bleeding could no longer be detected. The experiment was repeated 3 times with different groups and concentrations.

In the case of tinzaparin, the tumor growth progression [1] is reported as “halting tumor growth progression”, the “tumor growth or tumor angiogenesis” value (MPanc96-luc cells) is reported as “maximally inhibited” and the bleeding time [2] is reported as “extended the bleeding significantly”.
